Measured values reported in ChEMBL document CHEMBL1123297, “9-(2-Fluorobenzyl)-6-(methylamino)-9H-purine hydrochloride. Synthesis and anticonvulsant activity” (J Med Chem, 1986).

Columns and labels:
Mus musculus [1] = assay: Concentration required to protect 50 % of mice against hind limb extensor component in MES test when administered intraperitoneally; type: functional; conditions: Hindlimb, ip
Mus musculus [2] = assay: Concentration required to protect 50 % of mice against hind limb extensor component in MES test when administered intravenously; type: functional; conditions: Hindlimb, iv
Mus musculus [3] = assay: Concentration required to protect 50 % of mice against hind limb extensor component in MES test when administered perorally; type: functional; conditions: Hindlimb, po
Rattus norvegicus [4] = assay: Compound was evaluated for the anticonvulsant activity by testing its ability to protect against maximal electroshock- induced seizures in rats; Intraperitoneal administration (ip); type: functional
Rattus norvegicus [5] = assay: Compound was evaluated for the anticonvulsant activity by testing its ability to protect against maximal electroshock- induced seizures in rats; Intravenous administration (iv); type: functional
Rattus norvegicus [6] = assay: Compound was evaluated for the anticonvulsant activity by testing its ability to protect against maximal electroshock- induced seizures in rats after peroral administration (po); type: functional
[7] = (§1) Compound was evaluated for the anticonvulsant activity in rats.; type: organism-based; conditions: rat, in vivo
Rattus norvegicus [8] = organism: Rattus norvegicus; assay: as §1; type: organism-based; conditions: in vivo
Rattus norvegicus [9] = assay: Compound was evaluated for the anticonvulsant activity by testing its ability to protect against maximal electroshock- induced seizures in rats; Peroral administration (po); type: functional

| SMILES | ED50 (Mus musculus [1]) [mg/kg] | ED50 (Mus musculus [2]) [mg/kg] | ED50 (Mus musculus [3]) [mg/kg] | ED50 (Rattus norvegicus [4]) [mg/kg] | ED50 (Rattus norvegicus [5]) [mg/kg] | ED50 (Rattus norvegicus [6]) [mg/kg] | LD50 [7] [mg/kg] | LD50 (Rattus norvegicus [8]) [mg/kg] | ED50 (Rattus norvegicus [9]) [mg/kg] |
| --- | --- | --- | --- | --- | --- | --- | --- | --- | --- |
| CNc1ncnc2c1ncn2Cc1ccccc1F [BW-A78U] | 5 | 4 | 14 | 1.7 | 0.2 | 2.5 | > 1000 | > 500 | – |
| O=C1NC(=O)C(c2ccccc2)(c2ccccc2)N1 [PHENYTOIN] | 9 | 1.8 | 22 | 10 | 4 | – | – | – | 20 |
